Results reported in DBAASP.
Converted amounts (≈) assume the structure as drawn.

Experiments:
Assay in all cases: ≥ marks a high value that may be exact or a test limit, other limits are often not marked, values filed in µg/mL are converted to µM
[1] = system: Staphylococcus aureus ATCC 25923
[2] = system: Candida albicans ATCC 2002
[3] = system: Escherichia coli ATCC 25922
[4] = system: Pseudomonas aeruginosa CMCCB 10104
[5] = system: Escherichia coli ATCC 25726
[6] = system: Micrococcus luteus ATCC 9341
[7] = system: Escherichia coli ML-35p
[8] = system: Pseudomonas aeruginosa ATCC 27853
[9] = system: Staphylococcus aureus ATCC 43300
[10] = system: Bacillus subtilis
[11] = system: Staphylococcus aureus ATCC 2592
[12] = system: Pseudomonas aeruginosa PAO1

SMILES | MIC [1] | MIC [2] | MIC [3] | MIC [4] | MIC [5] | other results
CC[C@H](C)[C@H](NC(=O)CNC(=O)[C@H](CS)NC(=O)[C@H](Cc1ccccc1)NC(=O)[C@H](CCCCN)NC(=O)[C@H](CCCN=C(N)N)NC(=O)[C@@H]1CCCN1C(=O)[C@H](CCCN=C(N)N)NC(=O)[C@H](CC(=O)O)NC(=O)[C@@H]1CCCN1C(=O)[C@H](C)N)C(=O)N[C@@H](CC(C)C)C(=O)NCC(=O)O [APDRPRKFCGILG] | > 140 µM | ≥ 140 µM | > 140 µM | ≥ 140 µM |  | 
CC[C@H](C)[C@H](NC(=O)[C@H](CC(N)=O)NC(=O)[C@H](Cc1ccccc1)NC(=O)[C@H](CCSC)NC(=O)[C@H](CC(N)=O)NC(=O)[C@@H](N)CCC(=O)O)C(=O)N[C@@H](CCCCN)C(=O)N[C@@H](CO)C(=O)N[C@@H](CO)C(=O)N[C@H](C(=O)N[C@@H](CCC(=O)O)C(=O)N[C@@H](CO)C(=O)N[C@@H](CC(=O)O)C(=O)N[C@@H](CO)C(=O)N[C@@H](Cc1ccccc1)C(=O)N[C@@H](Cc1c[nH]c2ccccc12)C(=O)NCC(=O)O)C(C)C [ENMFNIKSSVESDSFWG] | > 101 µM | ≥ 101 µM | > 101 µM | ≥ 101 µM |  | 
CSCC[C@H](NC(=O)[C@H](CCCCN)NC(=O)[C@@H](NC(=O)[C@H](CCC(=O)O)NC(=O)[C@H](CCCCN)NC(=O)[C@H](CCCCN)NC(=O)[C@H](CCCCN)NC(=O)[C@H](CCCCN)NC(=O)[C@H](CC(C)C)NC(=O)[C@H](CCSC)NC(=O)[C@@H](N)CCC(=O)O)C(C)C)C(=O)N[C@@H](CCC(=O)O)C(=O)N[C@@H](CCCN=C(N)N)C(=O)N[C@@H](CCCCN)C(=O)N[C@H](C(=O)O)[C@@H](C)O [EMLKKKKEVKMERKT] | > 105 µM | ≥ 105 µM | > 105 µM | ≥ 105 µM |  | 
CC[C@H](C)[C@H](N)C(=O)N[C@@H](CC(C)C)C(=O)NCC(=O)N[C@@H](CCCCN)C(=O)N[C@@H](CC(C)C)C(=O)N[C@@H](CC(C)C)C(=O)N[C@@H](CO)C(=O)N[C@H](C(=O)N[C@@H](C)C(=O)N[C@@H](C)C(=O)N[C@@H](CCCCN)C(=O)N[C@@H](CC(C)C)C(=O)N[C@@H](CC(C)C)C(=O)N[C@@H](CO)C(=O)N[C@@H](CCCCN)C(=O)N[C@@H](CC(C)C)C(N)=O)[C@@H](C)O [ILGKLLSTAAKLLSKL] | 2 µM (≈ 3.34 µg/mL) |  |  |  | 16 µM (≈ 26.7 µg/mL) | 
CC[C@H](C)[C@H](NC(=O)[C@H](CC(N)=O)NC(=O)[C@@H](NC(=O)[C@H](C)N)[C@@H](C)O)C(=O)N1CCC[C@H]1C(=O)N[C@@H](Cc1ccccc1)C(=O)N[C@@H](CCCCN)C(=O)N[C@H](C(=O)N[C@@H](Cc1cnc[nH]1)C(=O)N[C@@H](Cc1ccccc1)C(=O)N[C@@H](CCCN=C(N)N)C(=O)N[C@H]1CSSC[C@@H](C(=O)O)NC(=O)[C@H](Cc2ccccc2)NC(=O)[C@H](C)NC(=O)[C@H](C)NC(=O)[C@H](CCCCN)NC1=O)C(C)C [ATNIPFKVHFRCKAAFC] | > 24.1 µM | 24.1 µM (≈ 47 µg/mL) | 12 µM (≈ 23.5 µg/mL) | 24.1 µM (≈ 47 µg/mL) |  | 
CC[C@H](C)[C@H](N)C(=O)N[C@@H](CC(C)C)C(=O)N1CCC[C@H]1C(=O)N[C@@H](Cc1c[nH]c2ccccc12)C(=O)N[C@@H](CCC(=O)O)C(=O)N[C@@H](Cc1c[nH]c2ccccc12)C(=O)N1CCC[C@H]1C(=O)N[C@@H](Cc1c[nH]c2ccccc12)C(=O)N[C@@H](Cc1c[nH]c2ccccc12)C(=O)N1CCC[C@H]1C(=O)N[C@@H](Cc1c[nH]c2ccccc12)C(=O)N[C@@H](CCC(=O)O)C(=O)N[C@@H](CCC(=O)O)C(N)=O [ILPWEWPWWPWEE] |  |  |  |  |  | MIC [6]: ≥ 100 µM
CC[C@H](C)[C@H](N)C(=O)N[C@@H](CC(C)C)C(=O)N1CCC[C@H]1C(=O)N[C@@H](Cc1c[nH]c2ccccc12)C(=O)N[C@@H](CCCCN)C(=O)N[C@@H](Cc1c[nH]c2ccccc12)C(=O)N1CCC[C@H]1C(=O)N[C@@H](Cc1c[nH]c2ccccc12)C(=O)N[C@@H](Cc1c[nH]c2ccccc12)C(=O)N1CCC[C@H]1C(=O)N[C@@H](Cc1c[nH]c2ccccc12)C(N)=O [ILPWKWPWWPW] |  |  |  |  |  | MIC [6]: 0.8 µM (≈ 1.28 µg/mL)
CC[C@H](C)[C@@H]1NC(=O)[C@H](C)NC(=O)[C@@H](NC(=O)[C@H](Cc2ccc(O)cc2)NC(=O)[C@H](C)NC(=O)[C@H](C)NC(=O)[C@@H]2CCCN2C(=O)[C@@H](NC(=O)[C@@H](NC(=O)[C@H](CCCCN)NC(=O)[C@@H](NC(=O)[C@H](C)NC(=O)[C@H](C)NC(=O)[C@H](CCCCN)NC(=O)[C@@H](NC(=O)[C@H](CC(C)C)NC(=O)CNC(=O)CNC(=O)[C@H](CCSC)NC(=O)[C@@H](N)Cc2ccccc2)[C@@H](C)CC)[C@@H](C)O)[C@@H](C)CC)C(C)C)CSSC[C@@H](C(=O)O)NC(=O)[C@H](CCCCN)NC(=O)[C@H](CCCCN)NC(=O)[C@H]([C@@H](C)O)NC1=O [FMGGLIKAATKIVPAAYCAITKKC] | 3.2 µM (≈ 7.99 µg/mL) |  |  |  | 25 µM (≈ 62.5 µg/mL) | 
CC[C@H](C)[C@H](NC(=O)[C@H](C)NC(=O)[C@H](CCSC)NC(=O)[C@@H](NC(=O)[C@H](CCCCN)NC(=O)[C@@H](NC(=O)[C@H](CCCCN)NC(=O)[C@H](CC(=O)O)NC(=O)[C@H](CCCN=C(N)N)NC(=O)[C@@H](NC(=O)[C@@H](N)CO)[C@@H](C)CC)[C@@H](C)CC)[C@@H](C)O)C(=O)N[C@@H](CC(=O)O)C(=O)N[C@@H](CC(C)C)C(=O)N[C@@H](C)C(=O)N[C@@H](CCCCN)C(=O)N[C@@H](CO)C(=O)N[C@@H](C)C(=O)NCC(=O)N[C@H](C(=O)NCC(=O)N[C@H](C(=O)N[C@@H](CC(C)C)C(=O)N[C@@H](CCCCN)C(=O)N[C@H](C(=O)N[C@@H](CC(C)C)C(=O)N[C@H](C(=O)N[C@H]1CSSC[C@@H](C(=O)O)NC(=O)[C@H](CO)NC(=O)[C@H](CCCCN)NC(=O)[C@H](CC(=O)O)NC(=O)[C@H](CC(C)C)NC(=O)[C@H](CCCCN)NC1=O)[C@@H](C)CC)[C@@H](C)O)C(C)C)[C@@H](C)O [SIRDKIKTMAIDLAKSAGTGVLKTLICKLDKSC] |  | 2.84 µM (≈ 9.99 µg/mL) |  |  |  | MIC [7]: 2.84 µM (≈ 9.99 µg/mL); MIC [8]: 1.42 µM (≈ 5 µg/mL); MIC [9]: 4.26 µM (≈ 15 µg/mL); MIC [10]: 11.4 µM (≈ 40 µg/mL); MIC [11]: 2.84 µM (≈ 9.99 µg/mL); MIC [12]: 1.42 µM (≈ 5 µg/mL)
CC[C@H](C)[C@H](NC(=O)[C@H](CCCCN)NC(=O)[C@H](CCCCN)NC(=O)CNC(=O)[C@H](C)NC(=O)CNC(=O)[C@H](Cc1ccccc1)NC(=O)[C@@H](NC(=O)[C@H](CO)NC(=O)CNC(=O)[C@H](CC(C)C)NC(=O)[C@H](CC(C)C)NC(=O)CN)[C@@H](C)CC)C(=O)N[C@@H](C)C(=O)N[C@H]1CSSC[C@@H](C(=O)O)NC(=O)[C@H](CC(C)C)NC(=O)CNC(=O)[C@H](CO)NC(=O)[C@H](CC(C)C)NC(=O)[C@H](C)NC1=O [GLLGSIFGAGKKIACALSGLC] | 31.6 µM (≈ 62.4 µg/mL) |  |  |  | 15.7 µM (≈ 31 µg/mL) | 
CC[C@H](C)[C@H](NC(=O)[C@H](C)NC(=O)[C@@H](NC(=O)[C@@H](NC(=O)[C@H](CCCCN)NC(=O)CNC(=O)[C@H](CCCCN)NC(=O)[C@H](CC(=O)O)NC(=O)[C@H](CCCN=C(N)N)NC(=O)[C@@H](NC(=O)[C@@H](N)CO)[C@@H](C)CC)[C@@H](C)O)[C@@H](C)CC)C(=O)N[C@@H](CC(=O)O)C(=O)N[C@@H](CC(C)C)C(=O)N[C@@H](C)C(=O)N[C@@H](CCCCN)C(=O)N[C@@H](CO)C(=O)N[C@@H](C)C(=O)NCC(=O)N[C@H](C(=O)NCC(=O)N[C@H](C(=O)N[C@@H](CC(C)C)C(=O)N[C@@H](CCCCN)C(=O)N[C@H](C(=O)N[C@@H](CC(C)C)C(=O)N[C@@H](CCSC)C(=O)N[C@H]1CSSC[C@@H](C(=O)O)NC(=O)[C@H](CO)NC(=O)[C@H](CCCCN)NC(=O)[C@H](CC(=O)O)NC(=O)[C@H](CC(C)C)NC(=O)[C@H](CCCCN)NC1=O)[C@@H](C)O)C(C)C)[C@@H](C)O [SIRDKGKTIAIDLAKSAGTGVLKTLMCKLDKSC] |  | 2.89 µM (≈ 9.99 µg/mL) |  |  |  | MIC [7]: 2.89 µM (≈ 9.99 µg/mL); MIC [8]: 0.721 µM (≈ 2.5 µg/mL); MIC [9]: 2.89 µM (≈ 9.99 µg/mL); MIC [10]: 8.66 µM (≈ 30 µg/mL); MIC [11]: 2.89 µM (≈ 9.99 µg/mL); MIC [12]: 0.721 µM (≈ 2.5 µg/mL)
CC[C@H](C)[C@H](N)C(=O)N[C@H](C(=O)N[C@H](C(=O)N1CCC[C@H]1C(=O)N1CCC[C@H]1C(=O)N[C@H](C(=O)N[C@H](C(=O)N[C@@H](CCCCN)C(=O)N[C@@H](CC(=O)O)C(=O)N[C@H](C(=O)N[C@@H](CC(C)C)C(=O)N[C@@H](CCCCN)C(=O)N[C@@H](CCCCN)C(=O)N[C@@H](Cc1ccccc1)C(=O)N[C@@H](Cc1ccccc1)C(=O)N[C@@H](CCCCN)C(=O)NCC(=O)NCC(=O)N[C@H](C(=O)N[C@@H](C)C(=O)NCC(=O)N[C@H](C(=O)N[C@@H](CCSC)C(=O)NCC(=O)N[C@@H](CCCCN)C(=O)N[C@@H](CO)C(=O)N[C@@H](CCC(N)=O)C(=O)O)C(C)C)[C@@H](C)CC)[C@@H](C)O)[C@@H](C)CC)[C@@H](C)CC)[C@@H](C)CC)[C@@H](C)O [ITIPPIIKDTLKKFFKGGIAGVMGKSQ] | 40 µM (≈ 116 µg/mL) |  |  |  | ≥ 80 µM | 
